In US10174016B2 (BAYER AKTIENGESELLSCHAFT, priority 2014, dated 2019):
Read-outs that look alike come from different tables or passages of the source.

How the values were obtained:
human P2X3 receptor = human P2X3 receptor (Homo sapiens (Human), UniProt P56373); experiment: Intracellular calcium measurement (FLIPR, Fluo-4) of antagonist activity at human P2X3 receptors; type: cell-based; details: read-out: hP2X3 IC50
Outline: (§1)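 Antagonism quantified from peak calcium fluorescence (Fluo-4, FLIPR, 90 sec read) evoked by EC80 α,β-Me-ATP, after a 30 min, 37° C. compound pretreatment in 1% DMSO. Human P2X3- or P2X2/3-expressing cells used; triplicate means fitted for IC50, percent maximal inhibition and Hill coefficient.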

human P2X2/3 receptor = human P2X2/3 receptor (Homo sapiens (Human), UniProt P56373+Q9UBL9); experiment: Intracellular calcium measurement (FLIPR, Fluo-4) of antagonist activity at human P2X2/3 receptors; type: cell-based; details: human P2X2/3, FLIPR calcium assay, agonist α,β-Me-ATP; read-out: hP2X2/3 IC50
Sequence of human P2X2/3 receptor (P56373 whole entry): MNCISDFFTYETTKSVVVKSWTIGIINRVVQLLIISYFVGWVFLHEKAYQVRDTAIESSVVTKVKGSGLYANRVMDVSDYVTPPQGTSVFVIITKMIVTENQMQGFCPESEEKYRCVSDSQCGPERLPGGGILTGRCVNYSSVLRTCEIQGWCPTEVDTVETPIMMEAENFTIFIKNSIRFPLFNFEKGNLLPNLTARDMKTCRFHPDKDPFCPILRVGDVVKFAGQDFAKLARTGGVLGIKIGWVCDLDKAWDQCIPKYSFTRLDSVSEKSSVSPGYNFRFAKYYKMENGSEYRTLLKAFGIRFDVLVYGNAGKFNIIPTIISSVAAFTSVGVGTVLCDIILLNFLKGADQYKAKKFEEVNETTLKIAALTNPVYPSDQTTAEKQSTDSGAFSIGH
Sequence of human P2X2/3 receptor (Q9UBL9 whole entry): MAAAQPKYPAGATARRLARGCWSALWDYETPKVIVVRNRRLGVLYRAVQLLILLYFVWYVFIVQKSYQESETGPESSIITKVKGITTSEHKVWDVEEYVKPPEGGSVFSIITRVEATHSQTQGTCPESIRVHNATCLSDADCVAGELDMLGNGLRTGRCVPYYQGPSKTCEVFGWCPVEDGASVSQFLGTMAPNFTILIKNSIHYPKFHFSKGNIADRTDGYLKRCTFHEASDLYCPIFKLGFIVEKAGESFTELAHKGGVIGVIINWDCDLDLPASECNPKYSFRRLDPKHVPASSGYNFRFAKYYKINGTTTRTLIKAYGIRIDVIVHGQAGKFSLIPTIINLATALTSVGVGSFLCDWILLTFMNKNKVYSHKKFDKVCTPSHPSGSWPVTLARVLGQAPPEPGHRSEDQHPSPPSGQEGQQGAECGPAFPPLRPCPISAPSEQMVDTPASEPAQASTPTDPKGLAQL
Outline: as §1

[1] = human P2X3, FLIPR calcium assay, agonist α,β-Me-ATP

Sequence of human P2X3 receptor (P56373 whole entry): as the sequence (P56373 whole entry) above

IC50 (human P2X3 receptor; [1])	SMILES	IC50 (human P2X2/3 receptor)	IC50 (human P2X3 receptor)
5 nM	CCc1cnc(-c2cc(O[C@H]3CCOC3)cc(C(=O)N[C@H](C)c3cnc(C(F)(F)F)nc3)c2)s1 [Example 251, 3-(5-ethyl-1,3-thiazol-2-yl)-5-[(3S)-tetrahydrofuran-3-yloxy]-N-{(1R)-1-[2-(trifluoromethyl)pyrimidin-5-yl]ethyl}benzamide]	38 nM	–
254 nM	Cc1ccc([C@@H](C)NC(=O)c2cc(O[C@H]3CCOC3)cc(-c3ncc(C(C)C)s3)c2)nn1 [Example 255, N-[(1R)-1-(6-methylpyridazin-3-yl)ethyl]-3-[5-(propan-2-yl)-1,3-thiazol-2-yl]-5-[(3S)-tetrahydrofuran-3-yloxy]benzamide]	449 nM	–
47 nM	CC(C)c1cnc(-c2cc(O[C@H]3CCOC3)cc(C(=O)N[C@H](C)c3cnc(C(F)(F)F)nc3)c2)s1 [Example 257, 3-[5-(propan-2-yl)-1,3-thiazol-2-yl]-5-[(3S)-tetrahydrofuran-3-yloxy]-N-{(1R)-1-[2-(trifluoromethyl)pyrimidin-5-yl]ethyl}benzamide]	324 nM	–
45 nM	Cc1ccc([C@@H](C)NC(=O)c2cc(OC[C@@H]3CCOC3)cc(-c3ncc(C4CCC4)s3)c2)nn1 [Example 261, 3-(5-cyclobutyl-1,3-thiazol-2-yl)-N-[(1R)-1-(6-methylpyridazin-3-yl)ethyl]-5-[(3R)-tetrahydrofuran-3-ylmethoxy]benzamide]	317 nM	–
33 nM	C[C@@H](NC(=O)c1cc(OC[C@@H]2CCOC2)cc(-c2ncc(C3CCC3)s2)c1)c1cnc(C(F)(F)F)nc1 [Example 263, 3-(5-cyclobutyl-1,3-thiazol-2-yl)-5-[(3R)-tetrahydrofuran-3-ylmethoxy]-N-{(1R)-1-[2-(trifluoromethyl)pyrimidin-5-yl]ethyl}benzamide]	170 nM	–
81 nM	Cc1ccc([C@@H](C)NC(=O)c2cc(OC[C@@H]3CCOC3)cc(-c3ncc(C(C)C)s3)c2)nn1 [Example 264, N-[(1R)-1-(6-methylpyridazin-3-yl)ethyl]-3-[5-(propan-2-yl)-1,3-thiazol-2-yl]-5-[(3R)-tetrahydrofuran-3-ylmethoxy]benzamide]	530 nM	–
–	CCc1cnc(-c2cc(OC[C@H]3CCCO3)cc(C(=O)N[C@H](C)c3cnc(C)cn3)c2)s1 [Example 268, 3-(5-ethyl-1,3-thiazol-2-yl)-N-[(1R)-1-(5-methylpyrazin-2-yl)ethyl]-5-[(2R)-tetrahydrofuran-2-ylmethoxy]benzamide]	392 nM	14 nM
25 nM	Cc1ccc([C@@H](C)NC(=O)c2cc(OC[C@H]3CCCO3)cc(-c3ncc(C4CCC4)s3)c2)nn1 [Example 270, 3-(5-cyclobutyl-1,3-thiazol-2-yl)-N-[(1R)-1-(6-methylpyridazin-3-yl)ethyl]-5-[(2R)-tetrahydrofuran-2-ylmethoxy]benzamide]	100 nM	–
–	C[C@@H](NC(=O)c1cc(OC[C@H]2CCCO2)cc(-c2ncc(C3CCC3)s2)c1)c1cnc(C(F)(F)F)nc1 [Example 272, 3-(5-cyclobutyl-1,3-thiazol-2-yl)-5-[(2R)-tetrahydrofuran-2-ylmethoxy]-N-{(1R)-1-[2-(trifluoromethyl)pyrimidin-5-yl]ethyl}benzamide]	128 nM	19 nM
–	Cc1ccc([C@@H](C)NC(=O)c2cc(OC[C@H]3CCCO3)cc(-c3ncc(C(C)C)s3)c2)nn1 [Example 273, N-[(1R)-1-(6-methylpyridazin-3-yl)ethyl]-3-[5-(propan-2-yl)-1,3-thiazol-2-yl]-5-[(2R)-tetrahydrofuran-2-ylmethoxy]benzamide]	254 nM	28 nM
–	CC(C)c1cnc(-c2cc(OC[C@H]3CCCO3)cc(C(=O)N[C@H](C)c3cnc(C(F)(F)F)nc3)c2)s1 [Example 275, 3-[5-(propan-2-yl)-1,3-thiazol-2-yl]-5-[(2R)-tetrahydrofuran-2-ylmethoxy]-N-{(1R)-1-[2-(trifluoromethyl)pyrimidin-5-yl]ethyl}benzamide]	191 nM	21 nM
115 nM	Cc1ccc([C@@H](C)NC(=O)c2cc(OC[C@H]3CCOC3)cc(-c3ncc(C(C)C)s3)c2)nn1 [Example 279, N-[(1R)-1-(6-methylpyridazin-3-yl)ethyl]-3-[5-(propan-2-yl)-1,3-thiazol-2-yl]-5-[(3S)-tetrahydrofuran-3-ylmethoxy]benzamide]	956 nM	–
–	CC(C)c1cnc(-c2cc(OC[C@H]3CCOC3)cc(C(=O)N[C@H](C)c3cnc(C(F)(F)F)nc3)c2)s1 [Example 281, 3-[5-(propan-2-yl)-1,3-thiazol-2-yl]-5-[(3S)-tetrahydrofuran-3-ylmethoxy]-N-{(1R)-1-[2-(trifluoromethyl)pyrimidin-5-yl]ethyl}benzamide]	198 nM	26 nM
–	CCc1cnc(-c2cc(OC[C@@H]3CCCO3)cc(C(=O)N[C@H](C)c3cnc(C)cn3)c2)s1 [Example 283, 3-(5-ethyl-1,3-thiazol-2-yl)-N-[(1R)-1-(5-methylpyrazin-2-yl)ethyl]-5-[(2S)-tetrahydrofuran-2-ylmethoxy]benzamide]	379 nM	10 nM
4 nM	CCc1cnc(-c2cc(OC[C@@H]3CCCO3)cc(C(=O)N[C@H](C)c3cnc(C(F)(F)F)nc3)c2)s1 [Example 284, 3-(5-ethyl-1,3-thiazol-2-yl)-5-[(2S)-tetrahydrofuran-2-ylmethoxy]-N-{(1R)-1-[2-(trifluoromethyl)pyrimidin-5-yl]ethyl}benzamide]	57 nM	–
113 nM	Cc1ccc([C@@H](C)NC(=O)c2cc(OC[C@@H]3CCCO3)cc(-c3ncc(C4CCC4)s3)c2)nn1 [Example 285, 3-(5-cyclobutyl-1,3-thiazol-2-yl)-N-[(1R)-1-(6-methylpyridazin-3-yl)ethyl]-5-[(2S)-tetrahydrofuran-2-ylmethoxy]benzamide]	760 nM	–
–	CC(C)c1cnc(-c2cc(OC[C@@H]3CCCO3)cc(C(=O)N[C@H](C)c3cnc(C(F)(F)F)nc3)c2)s1 [Example 290, 3-[5-(propan-2-yl)-1,3-thiazol-2-yl]-5-[(2S)-tetrahydrofuran-2-ylmethoxy]-N-{(1R)-1-[2-(trifluoromethyl)pyrimidin-5-yl]ethyl}benzamide]	368 nM	31 nM

SMILES	IC50 (human P2X3 receptor; [1])	IC50 (human P2X2/3 receptor)	IC50 (human P2X3 receptor)
CCc1cnc(-c2cc(OC[C@@H]3CCOC3)cc(C(=O)N[C@H](C)c3cnc(C)cn3)c2)s1 [Example 259, 3-(5-ethyl-1,3-thiazol-2-yl)-N-[(1R)-1-(5-methylpyrazin-2-yl)ethyl]-5-[(3R)-tetrahydrofuran-3-ylmethoxy]benzamide]	10 nM	102 nM	–
CCc1cnc(-c2cc(OC[C@@H]3CCOC3)cc(C(=O)N[C@H](C)c3cnc(C(F)(F)F)nc3)c2)s1 [Example 260, 3-(5-ethyl-1,3-thiazol-2-yl)-5-[(3R)-tetrahydrofuran-3-ylmethoxy]-N-{(1R)-1-[2-(trifluoromethyl)pyrimidin-5-yl]ethyl}benzamide]	2 nM	14 nM	–
CC(C)c1cnc(-c2cc(OC[C@@H]3CCOC3)cc(C(=O)N[C@H](C)c3cnc(C(F)(F)F)nc3)c2)s1 [Example 266, 3-[5-(propan-2-yl)-1,3-thiazol-2-yl]-5-[(3R)-tetrahydrofuran-3-ylmethoxy]-N-{(1R)-1-[2-(trifluoromethyl)pyrimidin-5-yl]ethyl}benzamide]	41 nM	367 nM	–
CCc1cnc(-c2cc(OC[C@H]3CCCO3)cc(C(=O)N[C@H](C)c3cnc(C(F)(F)F)nc3)c2)s1 [Example 269, 3-(5-ethyl-1,3-thiazol-2-yl)-5-[(2R)-tetrahydrofuran-2-ylmethoxy]-N-{(1R)-1-[2-(trifluoromethyl)pyrimidin-5-yl]ethyl}benzamide]	2 nM	35 nM	–
CCc1cnc(-c2cc(OC[C@H]3CCOC3)cc(C(=O)N[C@H](C)c3cnc(C)cn3)c2)s1 [Example 277, 3-(5-ethyl-1,3-thiazol-2-yl)-N-[(1R)-1-(5-methylpyrazin-2-yl)ethyl]-5-[(3S)-tetrahydrofuran-3-ylmethoxy]benzamide]	6 nM	96 nM	–
CCc1cnc(-c2cc(OC[C@H]3CCOC3)cc(C(=O)N[C@H](C)c3cnc(C(F)(F)F)nc3)c2)s1 [Example 278, 3-(5-ethyl-1,3-thiazol-2-yl)-5-[(3S)-tetrahydrofuran-3-ylmethoxy]-N-{(1R)-1-[2-(trifluoromethyl)pyrimidin-5-yl]ethyl}benzamide]	2 nM	23 nM	–
C[C@@H](NC(=O)c1cc(OC[C@@H]2CCCO2)cc(-c2ncc(C3CCC3)s2)c1)c1cnc(C(F)(F)F)nc1 [Example 287, 3-(5-cyclobutyl-1,3-thiazol-2-yl)-5-[(2S)-tetrahydrofuran-2-ylmethoxy]-N-{(1R)-1-[2-(trifluoromethyl)pyrimidin-5-yl]ethyl}benzamide]	35 nM	275 nM	–
Cc1ccc([C@@H](C)NC(=O)c2cc(OC[C@@H]3CCCO3)cc(-c3ncc(C(C)C)s3)c2)nn1 [Example 288, N-[(1R)-1-(6-methylpyridazin-3-yl)ethyl]-3-[5-(propan-2-yl)-1,3-thiazol-2-yl]-5-[(2S)-tetrahydrofuran-2-ylmethoxy]benzamide]	150 nM	1310 nM	–
CC(C)c1cnc(-c2cc(OC[C@@H]3CCOC3)cc(C(=O)N[C@H](C)c3ccc(C(F)(F)F)nn3)c2)s1 [Example 293, 3-[5-(propan-2-yl)-1,3-thiazol-2-yl]-5-[(3R)-tetrahydrofuran-3-ylmethoxy]-N-{(1R)-1-[6-(trifluoromethyl)pyridazin-3-yl]ethyl}benzamide]	63 nM	1160 nM	–
